Inhibition data for one compound are collected here from publication PMC11233931, “Remodeling tumor‐associated macrophage for anti‐cancer effects by rational design of irreversible inhibition of mitogen‐activated protein kinase‐activated protein kinase 2” (MedComm, 2024).

Common to all, as to assay: Eurofins kinase selectivity profile against 380 other human recombinant kinases (Table S2)
Holding throughout (assay type): biochemical

The target in assay [1] is T1, 380 human recombinant protein kinases (Homo sapiens, UniProt Q92519).
T1 construct: purchased Eurofins (Celle Lévescault)
T1 sequence (Q92519 1-343): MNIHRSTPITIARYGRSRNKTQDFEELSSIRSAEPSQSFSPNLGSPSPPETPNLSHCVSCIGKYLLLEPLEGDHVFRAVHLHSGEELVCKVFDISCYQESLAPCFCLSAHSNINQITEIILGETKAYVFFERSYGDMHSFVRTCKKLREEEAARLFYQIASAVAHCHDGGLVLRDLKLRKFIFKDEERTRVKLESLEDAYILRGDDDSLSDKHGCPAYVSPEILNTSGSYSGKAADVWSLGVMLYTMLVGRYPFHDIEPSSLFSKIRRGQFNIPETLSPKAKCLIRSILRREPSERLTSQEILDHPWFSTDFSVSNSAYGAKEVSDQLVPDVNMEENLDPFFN
Conditions: TRB2(h), read-out: Inhibition rate (%). The method, boiled down: (§1)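 Values come from a contract kinase-profiling service that tested the compound at multiple concentrations across 380 recombinant human kinases, as an off-target check against the MK2 activity.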

Assay [2] concerns the target T2, 380 human recombinant protein kinases (Homo sapiens, UniProt P20794).
T2 construct: purchased Eurofins (Celle Lévescault)
T2 sequence (P20794 1-623): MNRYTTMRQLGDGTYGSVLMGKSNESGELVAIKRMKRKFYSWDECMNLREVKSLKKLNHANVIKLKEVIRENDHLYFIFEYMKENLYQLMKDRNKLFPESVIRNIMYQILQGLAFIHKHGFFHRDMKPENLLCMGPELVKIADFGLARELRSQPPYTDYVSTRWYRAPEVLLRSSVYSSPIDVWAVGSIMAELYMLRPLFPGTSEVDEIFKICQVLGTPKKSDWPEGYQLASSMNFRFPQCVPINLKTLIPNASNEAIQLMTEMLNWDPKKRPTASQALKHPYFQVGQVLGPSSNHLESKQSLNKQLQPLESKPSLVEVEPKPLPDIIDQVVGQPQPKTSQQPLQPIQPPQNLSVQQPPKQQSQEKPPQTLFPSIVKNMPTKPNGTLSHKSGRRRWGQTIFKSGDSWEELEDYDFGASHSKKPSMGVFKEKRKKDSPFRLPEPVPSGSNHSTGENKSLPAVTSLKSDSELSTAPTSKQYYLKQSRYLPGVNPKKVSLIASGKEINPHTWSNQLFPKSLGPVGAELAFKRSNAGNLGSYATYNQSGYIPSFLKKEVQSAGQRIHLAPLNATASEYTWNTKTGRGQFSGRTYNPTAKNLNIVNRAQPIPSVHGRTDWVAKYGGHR
To be noted: MAK(h), read-out: Inhibition rate. The procedure, abridged: as §1

Assay [3] addresses T3, 380 human recombinant protein kinases (Homo sapiens, UniProt Q8TD19).
T3 construct: purchased Eurofins (Celle Lévescault)
T3 sequence (Q8TD19 1-979): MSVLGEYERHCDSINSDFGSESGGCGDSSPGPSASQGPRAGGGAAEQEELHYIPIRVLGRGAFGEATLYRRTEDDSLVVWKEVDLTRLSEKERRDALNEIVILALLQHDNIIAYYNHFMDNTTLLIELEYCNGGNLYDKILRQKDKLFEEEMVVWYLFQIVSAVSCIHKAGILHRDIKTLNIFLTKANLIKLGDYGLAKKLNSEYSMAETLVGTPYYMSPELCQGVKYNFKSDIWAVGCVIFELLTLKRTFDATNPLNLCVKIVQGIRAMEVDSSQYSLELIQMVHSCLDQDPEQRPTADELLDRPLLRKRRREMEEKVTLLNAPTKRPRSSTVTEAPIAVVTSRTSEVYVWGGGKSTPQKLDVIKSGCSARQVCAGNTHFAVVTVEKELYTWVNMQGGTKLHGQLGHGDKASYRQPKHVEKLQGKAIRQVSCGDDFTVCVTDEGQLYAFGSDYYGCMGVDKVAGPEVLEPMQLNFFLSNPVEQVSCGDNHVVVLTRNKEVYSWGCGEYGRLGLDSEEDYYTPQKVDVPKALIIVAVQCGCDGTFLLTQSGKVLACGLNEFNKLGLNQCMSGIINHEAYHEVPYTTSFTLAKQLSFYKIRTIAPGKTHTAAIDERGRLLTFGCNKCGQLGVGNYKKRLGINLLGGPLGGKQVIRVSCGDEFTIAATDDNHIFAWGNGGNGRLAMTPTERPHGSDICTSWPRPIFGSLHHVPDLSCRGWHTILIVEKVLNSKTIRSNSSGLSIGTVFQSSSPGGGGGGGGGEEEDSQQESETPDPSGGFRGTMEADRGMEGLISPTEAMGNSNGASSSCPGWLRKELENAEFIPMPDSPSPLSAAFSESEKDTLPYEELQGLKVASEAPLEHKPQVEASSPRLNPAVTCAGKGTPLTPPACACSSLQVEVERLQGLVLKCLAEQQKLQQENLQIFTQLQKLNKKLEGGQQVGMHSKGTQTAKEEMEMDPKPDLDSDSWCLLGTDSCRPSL
Conditions: NEK9(h), read-out: Inhibition rate. The procedure, abridged:
as §1

Assay [4] addresses T4, 380 human recombinant protein kinases (Homo sapiens, UniProt Q9Y4K4).
T4 construct: purchased Eurofins (Celle Lévescault)
To be noted: MAP4K5(h), read-out: Inhibition rate. The procedure, abridged: as §1

T4 sequence (Q9Y4K4 whole entry): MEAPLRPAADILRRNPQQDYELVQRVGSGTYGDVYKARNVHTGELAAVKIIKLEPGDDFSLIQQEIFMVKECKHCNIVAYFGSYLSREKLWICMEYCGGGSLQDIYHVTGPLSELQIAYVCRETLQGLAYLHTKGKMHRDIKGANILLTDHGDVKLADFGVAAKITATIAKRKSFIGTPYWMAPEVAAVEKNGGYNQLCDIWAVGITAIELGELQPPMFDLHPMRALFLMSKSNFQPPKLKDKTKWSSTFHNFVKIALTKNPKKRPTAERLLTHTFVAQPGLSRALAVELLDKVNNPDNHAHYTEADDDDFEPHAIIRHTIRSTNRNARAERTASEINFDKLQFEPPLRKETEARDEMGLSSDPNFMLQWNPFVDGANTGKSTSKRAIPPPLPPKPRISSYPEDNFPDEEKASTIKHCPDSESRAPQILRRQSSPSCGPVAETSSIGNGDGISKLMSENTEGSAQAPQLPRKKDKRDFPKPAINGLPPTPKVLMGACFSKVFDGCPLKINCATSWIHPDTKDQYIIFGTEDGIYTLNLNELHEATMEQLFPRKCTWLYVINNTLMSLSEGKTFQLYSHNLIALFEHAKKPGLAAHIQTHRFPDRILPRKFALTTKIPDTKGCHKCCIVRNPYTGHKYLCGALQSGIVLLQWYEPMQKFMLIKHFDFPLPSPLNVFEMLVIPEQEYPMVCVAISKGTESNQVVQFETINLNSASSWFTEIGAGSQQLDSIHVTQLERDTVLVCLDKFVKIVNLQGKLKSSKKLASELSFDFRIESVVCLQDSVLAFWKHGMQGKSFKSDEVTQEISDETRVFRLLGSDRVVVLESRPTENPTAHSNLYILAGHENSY

As usually defined, the inhibition is the drop in the measured response relative to a control, in per cent. As to `C=CC(=O)Nc1cc(-c2cc(-c3cc4c([nH]3)CCNC4=O)ccn2)ccc1OC(F)(F)F` [compound 11], the inhibition at 0.01 µM in assay [1] (10 nM) is 29%; in assay [2] (10 nM), -9%; in assay [3] (10 nM), -2%; in assay [4] (10 nM), -7%. The inhibition at 0.1 µM in assay [1] (100 nM) was 58%; in assay [2] (100 nM) it was -1%; in assay [3] (100 nM), -6%; in assay [4] (100 nM), -5%. For the same compound, the inhibition at 1 µM in assay [1] (1000 nM) was 85%; in assay [2] (1000 nM) it was -2%; in assay [3] (1000 nM) it was 1%; in assay [4] (1000 nM) it was 12%.
